# Data: patent US20220226270A1, “VERY-LONG-CHAIN POLYUNSATURATED FATTY ACIDS, ELOVANOID HYDROXYLATED DERIVATIVES, AND METHODS OF USE” (Board of Supervisors of Louisiana State University and …, priority 2019, published 2022)
# System: primary human RPE cells
# Assay: UOS-induced cell death in primary human RPE cells (Hoechst staining)
# Assay type: cell-based
# Settings: for UOS-induced primary human RPE cell death: UOS for 16 h + 32:6n3 or 34:6n3 (FIG. 8C); for cell death (apoptosis): UOS with H2O2 (800 μM), 16 h, VLC-PUFAs 3 μM each, NPD1 200 nM, UOS alone 50% cell death
# Protocol: Exposure of RPE cells to UOS and VLC-PUFA: For cell viability assay experiments hRPE cells were treated concomitantly with NPD1 (200 nM), 32-6, 34-6 (3 μM each) fatty acids or both 32-6 and 34-6 simultaneously. The hRPE medium was supplemented with 3 μM of 32-6 and 34-6 for the entire duration of the experiment. 15 lox-1 inhibitor (10 μM) was added to the cells 1 hour prior the OS induction and kept throughout the experiment. Cells were fixed with 4% PFA and stained with Hoescht.
# To assess cell death, hRPE and ARPE-19 cells were fixed with methanol for 15 mins, washed with 1× PBS then loaded with 2 μM Hoechst dissolved in a Locke's solution (Promega) and incubated for another 15 mins before imaging. Cells were then viewed by using a Zeiss LSM 510 confocal microscope under UV fluorescence. Images were recorded and cell apoptosis was assessed by using an automated unbiased method.
# To test the efficacy of 32:6n3 and 34:6n3 VLC-PUFAs to modulate human RPE cell homeostasis and survival rates, human RPE cells undergoing UOS were incubated with both VLC-PUFAs (3 μM each) and NPD1 (200 nM) 16 h. The addition of H2O2 (800 μM) induced apoptosis (50% cell death).
# hRPE cells, formerly serum deprived for 12 h, were incubated with the 15 lipoxygenase 1 (15-LOX-1) inhibitor (PD146176) (10 μM for 1 h), then bathed with 600 μM H2O2/TNF-α in conjunction with a mixture of 32:6n3 and 34:6n3 (3 μM each) for 16 h. The 15-LOX-1 inhibitor sensitizes cells; therefore, a lower concentration of H2O2 than in the cytoprotection experiment was used.
SMILES,UOS-induced primary human RPE cell death,cell death (apoptosis) [%]
"CC/C=C\C/C=C\C/C=C\C/C=C\C/C=C\C/C=C\CCCCCCCCCCCCC(=O)O [32:6n3, (14Z,17Z,20Z,23Z,26Z,29Z)-dotriaconta-14,17,20,23,26,29-hexaenoic acid]",cell death was prevented,4
"CC/C=C\C/C=C\C/C=C\C/C=C\C/C=C\C/C=C\CCCCCCCCCCCCCCC(=O)O [34:6n3, (16Z,19Z,22Z,25Z,28Z,31Z)-tetratriaconta-16,19,22,25,28,31-hexaenoic acid]",cell death was prevented,18
